The test system of the test is HUVEC cells. Kind of test: modified Boyden's chamber cell migration assay. The test is classed as cell-based, human. To be noted: toward 5% FBS, 6 h; other peptides 10 μM. The procedure:
HUVEC cell migration was assessed using a modified Boyden's chamber assay, i.e., in Transwell cell culture chambers (Corning Life Sciences, Acton, Mass.). Briefly, polycarbonate filters with 8 μm pores were used to separate the upper and the lower chambers. Cells were added to the upper compartment at a density of 10,000 cells/100 μl in serum-free medium containing 0.5% BSA and incubated for 6 h. Directional migration (chemotaxis) in the lower chamber was induced by addition of medium containing 5% FBS to the lower chamber. Where indicated parstatin or other peptides were added to lower chamber.
Cells on the filters were fixed and stained. The non-migrated cells (cells in upper surface) were removed by wiping with cotton swabs. The cells on the lower surface were counted manually under microscope in six predetermined fields. Parstatin (1-41) attenuated chemotactic cell migration through microporous membrane in response to serum (FIG. 3C). When human parstatin was combined with 5% FBS, the number of migrated cells was reduced in concentration-dependent manner.

The values below come from patent US9180163B2, “Parstatin peptides” (priority 2009, dated 2015).

For “TRARRPESKATNATLDPR (listed as Homo sapiens) [parstatin (24-41), 24-41 (18 amino acids) of human parstatin, hydrophilic fragment]”, the chemotactic cell migration result is “without effect”.
